Experimental data taken from US8383172B2, “Recovery of hydrophobic peptides from oils” (University of Saskatchewan, priority 2007, dated 2013).

Experiments:
[1] = system: human lung adenocarcinoma cells (Calu-3); experiment: Microarray analysis of apoptosis-regulating genes in Calu-3 cells; assay type: cell-based; design: key: ‘+’ and ‘−’ indicates genes over- and under-expressed, respectively; ‘+’ and ‘−’ indicates genes over- and under-expressed, respectively
Method: Cell culture. Human bronchial epithelial adenocarcinoma cell line (Calu-3) was obtained from ATCC (Manassas, Va., USA) and cultured in 50 cm^2 plastic culture flasks in modified eagle's medium (MEM) supplemented with 10% fetal bovine serum, glutamine (4 mM; Sigma-Aldrich, Canada) and penicillin (100 U mL-1)-streptomycin (100 μg mL-1) solution (Sigma-Aldrich, Canada). Cells were cultured at an initial density of 10^6 cells/mL, and fresh media was added on day 3. Cells were grown in an incubator at 37° C., 5% CO2, and 100% humidity.
Chemical treatments. Calu-3 cells were treated with different concentrations (0-100 μM) of cyclolinopeptide A (“CLA”), cyclolinopeptide C (“CLC”) or cyclolinopeptide E (“CLE”). Camptothecin (Sigma-Aldrich, Canada; 4 μM) and dimethylsulfoxide (DMSO) were used as positive and negative controls, respectively. Camptothecin is useful as a positive control in studies testing the effect of certain compounds on apoptosis in cancer cell lines. Camptothecin is a cytotoxic quinoline alkaloid that inhibits the DNA enzyme topoisomerase I (topo I) and has shown remarkable anti-cancer activity. Two analogs of camptothecin have been approved and are used in cancer chemotherapy.
Current microarray design platforms facilitate the design of gene expression arrays for analysis of a compound of interest and its impact on a large number of known genes. Cyclolinopeptide A, cyclolinopeptide C and cyclolinopeptide E were therefore used in microarray analysis to determine their effect on under- and over-expression of genes involved in the regulation of apoptosis in human lung adenocarcinoma cells (Table 2).

heat shock gene HSP70A = experiment: Expression of heat shock gene HSP70A in nematode cultures exposed to cyclolinopeptide-A; assay type: in vivo, Caenorhabditis elegans; conditions: two hours exposure, C. elegans
Text: FIG. 17 is a chart showing the effects of cyclolinopeptide A on the expression of the HSP70A gene in Caenorhabditis elegans. Bars on the columns represent standard deviations. Letters above the bars designate significant differences determined by data analysis using one-way analysis of variance with pair-wise multiple comparisons were done by the Tukey test; and
The following example relates to the use of selected purified individual cyclolinopeptides recovered and processed as disclosed herein for modulating the expression of stress genes. Nematode cultures (Caenorhabditus elegans) were exposed for two hours to one of DMSO (negative control), 0.1 μM cyclolinopeptide-A, 1.0 μM cyclolinopeptide-A, 10.0 μM cyclolinopeptide-A, and 100.0 μM cyclolinopeptide-A, and then cultured to assess the effects of cyclolinopeptide-A on the expression of the heat shock gene HSP70A by C. elegans. The control treatment was unamended culture medium.

Row | Substance | BCL-2 gene up- or down-regulated [1] | CDEB gene up- or down-regulated [1] | CIDEA gene up- or down-regulated [1] | Fas gene up- or down-regulated [1] | HRK gene up- or down-regulated [1] | TNF gene up- or down-regulated [1] | TP53BP2 gene up- or down-regulated [1] | increase in the production of the Hsp70A protein (heat shock gene HSP70A; 0.1 μM in culture media) | increase in the production of this heat shock protein (Hsp70A) (heat shock gene HSP70A; 1.0 μM in culture media) | increase in the production of the Hsp70A protein (heat shock gene HSP70A; 10.0 μM in culture media) | BAK gene up- or down-regulated [1] | FASLG gene up- or down-regulated [1] | TP53 gene up- or down-regulated [1] | CASP10 gene up- or down-regulated [1]
1 | cyclolinopeptide E [CLP-E] | − | + | + | + | + | + | + |  |  |  |  |  |  | 
2 | cyclolinopeptide A [CLP-A] | + | + |  | + |  | + | + | 30% | 3.5 fold | 30% | + | + | + | 
3 | cyclolinopeptide C [CLP-C] | − | + | + | + | + | + | + |  |  |  |  |  | + | +
